Measured values taken from BindingDB's records for doi:10.1021/jm2013826 (2012).

Biological target: Integrin alpha-IIb/beta-3 (Homo sapiens, UniProt P08514+P05106)
Test: Inhibition of integrin alpha2bbeta3-mediated platelet aggregation in human TRAP-6-activated whole blood for 6 mins by impedence-based aggregometry

Integrin alpha-IIb/beta-3, sequence (P05106 27-788 limits assumed): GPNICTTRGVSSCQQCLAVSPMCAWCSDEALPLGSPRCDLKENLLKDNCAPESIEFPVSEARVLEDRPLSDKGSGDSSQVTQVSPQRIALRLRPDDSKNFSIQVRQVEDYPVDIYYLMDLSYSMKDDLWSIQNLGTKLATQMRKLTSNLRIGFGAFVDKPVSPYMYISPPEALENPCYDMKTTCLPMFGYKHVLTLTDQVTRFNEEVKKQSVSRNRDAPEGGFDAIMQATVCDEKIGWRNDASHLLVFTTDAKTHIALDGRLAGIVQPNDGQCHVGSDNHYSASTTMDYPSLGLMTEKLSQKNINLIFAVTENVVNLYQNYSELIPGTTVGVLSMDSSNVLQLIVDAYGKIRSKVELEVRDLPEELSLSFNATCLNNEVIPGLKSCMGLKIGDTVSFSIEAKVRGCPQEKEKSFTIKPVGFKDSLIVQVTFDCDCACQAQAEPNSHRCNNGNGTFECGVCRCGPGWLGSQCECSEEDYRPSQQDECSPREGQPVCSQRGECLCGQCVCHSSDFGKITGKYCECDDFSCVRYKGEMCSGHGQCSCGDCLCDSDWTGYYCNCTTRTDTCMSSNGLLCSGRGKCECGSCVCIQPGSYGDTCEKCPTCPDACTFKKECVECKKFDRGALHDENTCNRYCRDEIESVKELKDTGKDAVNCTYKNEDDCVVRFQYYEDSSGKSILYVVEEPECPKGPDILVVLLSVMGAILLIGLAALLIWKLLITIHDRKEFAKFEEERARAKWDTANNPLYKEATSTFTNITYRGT
Integrin alpha-IIb/beta-3, sequence (P08514 32-887 limits assumed): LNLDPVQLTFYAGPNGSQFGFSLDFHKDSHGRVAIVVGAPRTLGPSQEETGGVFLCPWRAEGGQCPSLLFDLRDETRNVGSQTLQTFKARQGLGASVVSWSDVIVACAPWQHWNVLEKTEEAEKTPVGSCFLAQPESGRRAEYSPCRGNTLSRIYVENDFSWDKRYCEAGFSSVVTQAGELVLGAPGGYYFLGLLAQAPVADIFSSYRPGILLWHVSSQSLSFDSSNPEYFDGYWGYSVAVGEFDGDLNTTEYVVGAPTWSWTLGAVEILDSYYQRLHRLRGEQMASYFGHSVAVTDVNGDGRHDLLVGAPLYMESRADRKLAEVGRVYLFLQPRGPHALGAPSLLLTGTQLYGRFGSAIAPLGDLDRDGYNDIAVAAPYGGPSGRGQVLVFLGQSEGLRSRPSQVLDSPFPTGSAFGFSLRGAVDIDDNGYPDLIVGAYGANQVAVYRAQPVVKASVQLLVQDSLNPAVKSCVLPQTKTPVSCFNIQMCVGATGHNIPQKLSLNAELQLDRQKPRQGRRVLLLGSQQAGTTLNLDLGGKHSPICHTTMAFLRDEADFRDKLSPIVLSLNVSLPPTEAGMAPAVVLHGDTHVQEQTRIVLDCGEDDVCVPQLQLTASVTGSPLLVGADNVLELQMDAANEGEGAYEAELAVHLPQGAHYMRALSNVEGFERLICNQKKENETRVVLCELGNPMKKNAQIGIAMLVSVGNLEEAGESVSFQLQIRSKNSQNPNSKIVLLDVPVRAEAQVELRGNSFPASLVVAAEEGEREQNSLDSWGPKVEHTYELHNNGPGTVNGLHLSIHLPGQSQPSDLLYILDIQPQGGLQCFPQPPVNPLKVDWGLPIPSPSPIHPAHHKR
Integrin alpha-IIb/beta-3, sequence (P08514 891-1039 limits assumed): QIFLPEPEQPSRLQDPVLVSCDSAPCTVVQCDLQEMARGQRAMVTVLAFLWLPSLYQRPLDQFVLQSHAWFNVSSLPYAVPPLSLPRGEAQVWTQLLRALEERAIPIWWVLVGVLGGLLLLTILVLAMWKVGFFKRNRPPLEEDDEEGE

Row | EC50 | SMILES
1 | 0.0408 µM | COP(=O)(O)[C@H](CNC(=O)c1ccc(OCCC2CCNCC2)cc1)NS(=O)(=O)c1ccccc1
2 | 0.276 µM | O=C(NC[C@H](NS(=O)(=O)c1ccccc1)P(=O)(O)O)c1ccc(OCCC2CCNCC2)cc1
3 | 0.0078 µM | O=C(NC[C@H](NS(=O)(=O)c1ccccc1)[PH](=O)O)c1ccc(OCCC2CCNCC2)cc1
